Measurements as given in patent US8592181B2, “Brazzein variant having higher sweetness and method for preparing multi-variant” (Chung-Ang University Industry-Academy Cooperation Foundation, priority 2009, dated 2013).

What was measured:
human sense of taste = experiment: Sweetness measured by human sense of taste (20 trained subjects, minimum concentration at which sweetness is first sensed); format: in vivo; details: for Multiples of increased sweetness to minor-type brazzein / Minimum stimulation level in which one senses sweetness for first time: primary brazzein variants; for Multiples of increased sweetness to minor-type brazzein: relative to minor-type brazzein; for Minimum stimulation level in which one senses sweetness for first time: 20 trained subjects; for Sweetness ratios of sucrose (1 g/100 ml) to primary brazzein variants (minor-type brazzein: 2000): relative to 1 g/100 ml sucrose threshold
Procedure: Since the recombinant brazzein according to the present invention is not a sucrose-based compound having a cyclic ring, the sweetness of the recombinant brazzein was not measured using a saccharometer. Therefore, the activity of the recombinant brazzein was measured using the human sense of taste. Sugar content measurement was performed on 20 subjects who were trained to feel substantially the same minimum concentration of sucrose in which they could sense sweetness using a sucrose solution. That is, a concentration of each brazzein variant in which the subjects could sense sweetness for the first time was measured. Also, a sweetness ratio of the sucrose solution to the wild-type brazzein was 1 g/100 ml, which was a minimum stimulation level in which the subjects could sense sweetness. Also, a sweetness ratio of the minor-type brazzein protein to the wild-type brazzein was 500 μg/100 ml, which was a minimum stimulation level in which the subjects could sense sweetness. Therefore, the sweetness was calculated using the sweetness ratios (That is, 1/0.0005=2000 for the minor-type brazzein).
Also, the brazzein multi-variants were measured for activity (sweetness) in the same manner as in Example 3-1.

[1] = Thermal stability: heated at 80° C. for 4 hours in 50 mM Tris-HCl (pH 8.0), sweetness change level measured by the 20 subjects; format: physicochemical; details: primary variants
Procedure: On the basis of the results measured in Example 3-1, 100 mg of each of the brazzein variants having high sweetness, that is, brazzein(H30K) set forth in SEQ ID NO: 99, brazzein(H30R) set forth in SEQ ID NO: 100, brazzein(E35D) set forth in SEQ ID NO: 109, brazzein(E40A) set forth in SEQ ID NO: 113, brazzein(E40A) set forth in SEQ ID NO: 113, brazzein(E40D) set forth in SEQ ID NO: 114, brazzein(E40K) set forth in SEQ ID NO: 115, brazzein(E40H) set forth in SEQ ID NO: 116 and brazzein(E40R) set forth in SEQ ID NO: 117, was dissolved in a 50 mM Tris-HCl (pH 8.0) solution, and heated at 80° C. for 4 hours. Based on the sweetness measured before the heat treatment of the respective primary brazzein variants, a sweetness change level of each primary brazzein variant was then measured by the 20 subjects in the same manner as in Example 3-1.
Also, the brazzein multi-variants were measured for thermal stability in the same manner as in Example 3-2. […] From the high performance liquid chromatography analysis of the quaternary variants out of the brazzein multi-variants, it was confirmed that the quaternary variants maintained their constant thermal stability in spite of the fact that the quaternary variants had different structural properties than the minor-type brazzein protein.

Substance: E35D: primary brazzein variant: Glu at position 35 of minor-type brazzein substituted with Asp (DKCKKVYENYPVSKCQLANQCNYDCKLRKHARSGDCFYDEKRNLQCICDYCEY; Brazzein(E35D)) [Brazzein E35D]
- Multiples of increased sweetness to minor-type brazzein (human sense of taste): 3.3
- Minimum stimulation level in which one senses sweetness for first time (human sense of taste): 150 μg/100 ml
- Sweetness ratios of sucrose (1 g/100 ml) to primary brazzein variants (minor-type brazzein: 2000) (human sense of taste): 6,600
- Thermal stability (relative activity after heat treatment) [1]: maintained their thermal stabilities

Substance: E40A: primary brazzein variant: Glu at position 40 of minor-type brazzein substituted with Ala (DKCKKVYENYPVSKCQLANQCNYDCKLRKHARSGECFYDAKRNLQCICDYCEY; Brazzein(E40A)) [Brazzein E40A]
- Multiples of increased sweetness to minor-type brazzein (human sense of taste): 3.3
- Minimum stimulation level in which one senses sweetness for first time (human sense of taste): 150 μg/100 ml
- Sweetness ratios of sucrose (1 g/100 ml) to primary brazzein variants (minor-type brazzein: 2000) (human sense of taste): 6,600
- Thermal stability (relative activity after heat treatment) [1]: maintained their thermal stabilities

Substance: K5R: primary brazzein variant: Lys at position 5 of minor-type brazzein substituted with Arg (DKCKRVYENYPVSKCQLANQCNYDCKLRKHARSGECFYDEKRNLQCICDYCEY; Brazzein(K5R)) [Brazzein K5R]
- Multiples of increased sweetness to minor-type brazzein (human sense of taste): 0.05
- Minimum stimulation level in which one senses sweetness for first time (human sense of taste): 10,000 μg/100 ml
- Sweetness ratios of sucrose (1 g/100 ml) to primary brazzein variants (minor-type brazzein: 2000) (human sense of taste): 100

Substance: K29A: primary brazzein variant: Lys at position 29 of minor-type brazzein substituted with Ala (DKCKKVYENYPVSKCQLANQCNYDCKLRAHARSGECFYDEKRNLQCICDYCEY; Brazzein(K29A)) [Brazzein K29A]
- Multiples of increased sweetness to minor-type brazzein (human sense of taste): 0.05
- Minimum stimulation level in which one senses sweetness for first time (human sense of taste): 10,000 μg/100 ml
- Sweetness ratios of sucrose (1 g/100 ml) to primary brazzein variants (minor-type brazzein: 2000) (human sense of taste): 100

Substance: K29D: primary brazzein variant: Lys at position 29 of minor-type brazzein substituted with Asp (DKCKKVYENYPVSKCQLANQCNYDCKLRDHARSGECFYDEKRNLQCICDYCEY; Brazzein(K29D)) [Brazzein K29D]
- Multiples of increased sweetness to minor-type brazzein (human sense of taste): 0.05
- Minimum stimulation level in which one senses sweetness for first time (human sense of taste): 10,000 μg/100 ml
- Sweetness ratios of sucrose (1 g/100 ml) to primary brazzein variants (minor-type brazzein: 2000) (human sense of taste): 100

Substance: K29E: primary brazzein variant: Lys at position 29 of minor-type brazzein substituted with Glu (DKCKKVYENYPVSKCQLANQCNYDCKLREHARSGECFYDEKRNLQCICDYCEY; Brazzein(K29E)) [Brazzein K29E]
- Multiples of increased sweetness to minor-type brazzein (human sense of taste): 0.05
- Minimum stimulation level in which one senses sweetness for first time (human sense of taste): 10,000 μg/100 ml
- Sweetness ratios of sucrose (1 g/100 ml) to primary brazzein variants (minor-type brazzein: 2000) (human sense of taste): 100

Substance: K29H: primary brazzein variant: Lys at position 29 of minor-type brazzein substituted with His (DKCKKVYENYPVSKCQLANQCNYDCKLRHHARSGECFYDEKRNLQCICDYCEY; Brazzein(K29H)) [Brazzein K29H]
- Multiples of increased sweetness to minor-type brazzein (human sense of taste): 0.05
- Minimum stimulation level in which one senses sweetness for first time (human sense of taste): 10,000 μg/100 ml
- Sweetness ratios of sucrose (1 g/100 ml) to primary brazzein variants (minor-type brazzein: 2000) (human sense of taste): 100

Substance: K29R: primary brazzein variant: Lys at position 29 of minor-type brazzein substituted with Arg (DKCKKVYENYPVSKCQLANQCNYDCKLRRHARSGECFYDEKRNLQCICDYCEY; Brazzein(K29R)) [Brazzein K29R]
- Multiples of increased sweetness to minor-type brazzein (human sense of taste): 0.05
- Minimum stimulation level in which one senses sweetness for first time (human sense of taste): 10,000 μg/100 ml
- Sweetness ratios of sucrose (1 g/100 ml) to primary brazzein variants (minor-type brazzein: 2000) (human sense of taste): 100

Substance: R32A: primary brazzein variant: Arg at position 32 of minor-type brazzein substituted with Ala (DKCKKVYENYPVSKCQLANQCNYDCKLRKHAASGECFYDEKRNLQCICDYCEY; Brazzein(R32A)) [Brazzein R32A]
- Multiples of increased sweetness to minor-type brazzein (human sense of taste): 0.08
- Minimum stimulation level in which one senses sweetness for first time (human sense of taste): 6,000 μg/100 ml
- Sweetness ratios of sucrose (1 g/100 ml) to primary brazzein variants (minor-type brazzein: 2000) (human sense of taste): 167

Substance: R32D: primary brazzein variant: Arg at position 32 of minor-type brazzein substituted with Asp (DKCKKVYENYPVSKCQLANQCNYDCKLRKHADSGECFYDEKRNLQCICDYCEY; Brazzein(R32D)) [Brazzein R32D]
- Multiples of increased sweetness to minor-type brazzein (human sense of taste): 0.05
- Minimum stimulation level in which one senses sweetness for first time (human sense of taste): 10,000 μg/100 ml
- Sweetness ratios of sucrose (1 g/100 ml) to primary brazzein variants (minor-type brazzein: 2000) (human sense of taste): 100

Substance: R32E: primary brazzein variant: Arg at position 32 of minor-type brazzein substituted with Glu (DKCKKVYENYPVSKCQLANQCNYDCKLRKHAESGECFYDEKRNLQCICDYCEY; Brazzein(R32E)) [Brazzein R32E]
- Multiples of increased sweetness to minor-type brazzein (human sense of taste): 0.05
- Minimum stimulation level in which one senses sweetness for first time (human sense of taste): 10,000 μg/100 ml
- Sweetness ratios of sucrose (1 g/100 ml) to primary brazzein variants (minor-type brazzein: 2000) (human sense of taste): 100

Substance: R32H: primary brazzein variant: Arg at position 32 of minor-type brazzein substituted with His (DKCKKVYENYPVSKCQLANQCNYDCKLRKHAHSGECFYDEKRNLQCICDYCEY; Brazzein(R32H)) [Brazzein R32H]
- Multiples of increased sweetness to minor-type brazzein (human sense of taste): 0.16
- Minimum stimulation level in which one senses sweetness for first time (human sense of taste): 3,000 μg/100 ml
- Sweetness ratios of sucrose (1 g/100 ml) to primary brazzein variants (minor-type brazzein: 2000) (human sense of taste): 334

Substance: R32K: primary brazzein variant: Arg at position 32 of minor-type brazzein substituted with Lys (DKCKKVYENYPVSKCQLANQCNYDCKLRKHAKSGECFYDEKRNLQCICDYCEY; Brazzein(R32K)) [Brazzein R32K]
- Multiples of increased sweetness to minor-type brazzein (human sense of taste): 0.16
- Minimum stimulation level in which one senses sweetness for first time (human sense of taste): 3,000 μg/100 ml
- Sweetness ratios of sucrose (1 g/100 ml) to primary brazzein variants (minor-type brazzein: 2000) (human sense of taste): 334

Substance: R42A: primary brazzein variant: Arg at position 42 of minor-type brazzein substituted with Ala (DKCKKVYENYPVSKCQLANQCNYDCKLRKHARSGECFYDEKANLQCICDYCEY; Brazzein(R42A)) [Brazzein R42A]
- Multiples of increased sweetness to minor-type brazzein (human sense of taste): 0.05
- Minimum stimulation level in which one senses sweetness for first time (human sense of taste): 10,000 μg/100 ml
- Sweetness ratios of sucrose (1 g/100 ml) to primary brazzein variants (minor-type brazzein: 2000) (human sense of taste): 100

Substance: R42D: primary brazzein variant: Arg at position 42 of minor-type brazzein substituted with Asp (DKCKKVYENYPVSKCQLANQCNYDCKLRKHARSGECFYDEKDNLQCICDYCEY; Brazzein(R42D)) [Brazzein R42D]
- Multiples of increased sweetness to minor-type brazzein (human sense of taste): 0.05
- Minimum stimulation level in which one senses sweetness for first time (human sense of taste): 10,000 μg/100 ml
- Sweetness ratios of sucrose (1 g/100 ml) to primary brazzein variants (minor-type brazzein: 2000) (human sense of taste): 100

Substance: R42E: primary brazzein variant: Arg at position 42 of minor-type brazzein substituted with Glu (DKCKKVYENYPVSKCQLANQCNYDCKLRKHARSGECFYDEKENLQCICDYCEY; Brazzein(R42E)) [Brazzein R42E]
- Multiples of increased sweetness to minor-type brazzein (human sense of taste): 0.05
- Minimum stimulation level in which one senses sweetness for first time (human sense of taste): 10,000 μg/100 ml
- Sweetness ratios of sucrose (1 g/100 ml) to primary brazzein variants (minor-type brazzein: 2000) (human sense of taste): 100

Substance: R42H: primary brazzein variant: Arg at position 42 of minor-type brazzein substituted with His (DKCKKVYENYPVSKCQLANQCNYDCKLRKHARSGECFYDEKHNLQCICDYCEY; Brazzein(R42H)) [Brazzein R42H]
- Multiples of increased sweetness to minor-type brazzein (human sense of taste): 0.16
- Minimum stimulation level in which one senses sweetness for first time (human sense of taste): 3,000 μg/100 ml
- Sweetness ratios of sucrose (1 g/100 ml) to primary brazzein variants (minor-type brazzein: 2000) (human sense of taste): 334

Substance: R42K: primary brazzein variant: Arg at position 42 of minor-type brazzein substituted with Lys (DKCKKVYENYPVSKCQLANQCNYDCKLRKHARSGECFYDEKKNLQCICDYCEY; Brazzein(R42K)) [Brazzein R42K]
- Multiples of increased sweetness to minor-type brazzein (human sense of taste): 0.16
- Minimum stimulation level in which one senses sweetness for first time (human sense of taste): 3,000 μg/100 ml
- Sweetness ratios of sucrose (1 g/100 ml) to primary brazzein variants (minor-type brazzein: 2000) (human sense of taste): 334
